The subject of test [1] is NF-κB signaling. The conditions noted are these: L265P expressing ABC DLBCL cell lines; cited from earlier work.
Test [2] has as its system MYD88 L265P expressing WM cells. The test can be described thus: Apoptosis analysis by Annexin V and PI staining. It counts as cell-based. The conditions noted are these: BCWM.1 and MWCL-1 WM cells which possess the MYD88 L265P mutation. Here is the method:
Western blot analysis was performed using total and phospho-specific antibodies in MYD88 L265P expressing WM cells, BCWM.1 and MCWL-1 following MYD88 knockdown by lentiviral transduction, and/or use of MYD88 or IRAK signal inhibitors. […] Annexin V/PI staining was used to assess cell survival, and synergism assessed with CalcuSyn software.

Test [3] concerns NF-κB signaling. Briefly: NF-κB signaling in BCWM.1 and MWCL-1 WM cells. Type of test: cell-based. The settings on record: BCWM.1 and MWCL-1 WM cells which possess the MYD88 L265P mutation.

Where two headings read alike, the source gives them in different places.

Consider `O=C(Nc1nc2ccccc2n1CCN1CCOCC1)c1cccc([N+](=O)[O-])c1` [IRAK1/4 inhibitor, N-(2-Morpholinylethyl)-2-(3-nitrobenzoylamido)-benzimidazole], for which the NF-κB signaling result in test [1] and in test [3] was “loss of NF-κB signaling” each time. The apoptosis result in test [2] is on record as “enhanced apoptosis”.

The values above are taken from patent publication US11739385B2, “Discovery of a somatic mutation in MYD88 gene in lymphoplasmacytic lymphoma” (Dana-Farber Cancer Institute, Inc., priority 2011, dated 2023).
